In article PMC7933130 (Nature, 2021):

Target: NaCT (Homo sapiens, UniProt Q86YT5)
Assay: cryo-EM structure at […] Å
Format: binding

Sequence of NaCT (Q86YT5 whole entry): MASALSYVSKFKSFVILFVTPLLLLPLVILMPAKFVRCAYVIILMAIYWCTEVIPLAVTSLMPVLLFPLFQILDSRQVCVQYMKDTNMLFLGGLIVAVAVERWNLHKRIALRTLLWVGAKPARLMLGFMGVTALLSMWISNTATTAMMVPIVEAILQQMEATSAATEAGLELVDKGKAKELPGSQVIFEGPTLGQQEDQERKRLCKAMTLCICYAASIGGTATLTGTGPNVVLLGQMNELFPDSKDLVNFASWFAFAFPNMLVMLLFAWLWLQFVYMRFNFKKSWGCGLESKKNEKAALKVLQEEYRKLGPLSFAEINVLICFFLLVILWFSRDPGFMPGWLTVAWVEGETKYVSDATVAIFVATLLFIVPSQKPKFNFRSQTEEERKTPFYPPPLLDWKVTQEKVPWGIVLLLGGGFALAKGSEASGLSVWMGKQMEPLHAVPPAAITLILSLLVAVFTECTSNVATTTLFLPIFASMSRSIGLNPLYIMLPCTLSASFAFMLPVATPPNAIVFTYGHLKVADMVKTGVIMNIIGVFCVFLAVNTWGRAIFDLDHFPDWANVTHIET

Kd: 148 ± 28 µM
SMILES: O=C(O)CC(O)(CC(=O)O)C(=O)O [citrate]
